Read-outs that look alike come from different tables or passages of the source.
Assays:
Assay type in all cases: in vivo
[1] = system: Wistar male rats; experiment: Flexor reflex in spinalized rats; details: intravenous; for response vs control in vivo at 0.1 mg/kg / response vs control in vivo at 0.3 mg/kg: Rattus norvegicus; for response vs control in vivo at 0.1 mg/kg / response vs control in vivo at 0.3 mg/kg / Reflex amplitude (%) 10 min. after / Reflex amplitude (%) 60 min. after: pre-dose mean = 100%; for Area below the reflex amplitude linking line: covering 60 minutes
Protocol: Wistar male rats (weighing 450-520 g) were anesthetized with ether, and the cervical part of […] was exposed, into which a tracheal cannula was inserted. The vagus nerves were severed bilaterally at the cervical region. Thereafter, the cervical vertebra C1 segment was transected, and rapidly, artificial ventilation was given with the use of an artificial respirator (Shinano Factory 60 rpm. 4 ml/stroke). The rat was placed on a thermostated apparatus in which water thermostated at 37° C. was circulated and fixed thereto at forelimbs, right hindlimb, tooth and tail. A venous cannula was inserted into the femoral vein in the right hindlimb and two needle electrodes were subcutaneously inserted into the left skin of the toe, and a piece of thread was attached to the limb with the edge of the thread bonded to a force-displacement transducer. Tension of about 5 g was applied to the thread. Through the electrodes, electric stimuli of 50-100 V were applied once per 30 seconds. The flexor reflex was recorded on the polygraph via a force-displacement transducer. After the reaction became constant in about one-hours' lapse for stabilization, the test compound dissolved in saline was intravenously administered. Thereafter, the reaction was recorded for 1 hour. In the data, taking the mean of the three reactions just before administration of the test compound for 100%, the reflex amplitude at 1-, 3-, 5-, 8-, 10-, 15-, 20-, 30-, 40-, 50- and 60-minutes' lapse after administration of the test compound were calculated. In Table 3, there are shown calculated area below the straight line linking the obtained reflex amplitude at the respective above-mentioned time covering 60 […], and the reflex amplitude at 10- and 60-minutes' lapse after administration (Table 3).

[2] = system: ICR male mice; experiment: Anti-reserpine action (antagonistic action against hypothermia); details: SC, mice given reserpine 5 mg/kg s.c. 3 or 3.5 hours before, from regression line; for ED (1 degC rise in body temperature): Mus musculus, 2 h, read-out: Concentration of test compound necessary for raising body temperature by 1° C. on the average for 120 minutes
Protocol: ICR male mice weighing 35-40 g were subcutaneously administered with reserpine at the dose of 5 mg/kg. About 2 hours later, each of the mice was held by a mouse-holder, and a body temperature sensor was intrarectally inserted. Thereafter, the body temperature was automatically measured every 10 minutes. The test compound dissolved in saline was subcutaneously administered 3 or 3.5 hours after administration of reserpine. After the administration of the test compound, the body temperature was measured every 10 minutes over the period of 120 minutes. The area below the body temperature line during the period was calculated, from which the regression line was estimated based upon least square method, and estimated was the amount of the test compound necessary for raising the body temperature by 1° C. on the average for 120 minutes from that just before the administration of the test compound (Table 1).

[3] = system: ICR male mice; experiment: Anti-chlorpromazine action (locomotor stimulant action); details: SC, mice given chlorpromazine.HCl 5 mg/kg s.c. one hour before, from regression line; for ED (3000 locomotor counts): Mus musculus, 2 h, read-out: Concentration of test compound necessary for inducing 3000 count of automatism quantity in 2 hours
Protocol: ICR male mice weighing 35-40 g (four animals per group) were subcutaneously administered with chlorpromazine.HCl at the dose of 5 mg/kg and immediately set in the automatic locomotor-measuring apparatus (AUTOMEX). One hour later, the test compound dissolved in saline was subcutaneously administered, and the locomotor activity was measured every 15 minutes for 120 minutes. The total locomotor activity during the period of 120 minutes was calculated and the regression line was estimated based on the method of least squares, from which the amount of the test compound necessary for inducing 3000 locomotor-count was estimated (Table 2).

[4] = 1 h, 0.1 mg/kg, read-out: Reflex amplitude (%) 60 min. after
[5] = 1 h, 0.3 mg/kg (footnote *), read-out: Reflex amplitude (%) 60 min. after
[6] = 10 min, 0.1 mg/kg, read-out: Reflex amplitude (%) 10 min. after
[7] = 10 min, 0.3 mg/kg (footnote *), read-out: Reflex amplitude (%) 10 min. after

C[C@H]1CC(=O)C[C@H]1C(=O)N[C@@H](Cc1c[nH]cn1)C(=O)N1CCC[C@H]1C(N)=O (mixture of isomers) [Compound 19, N^α -(cis-2-Methyl-4-oxocyclopentanecarbonyl)-L-histidyl-L-prolinamide]
response vs control in vivo at 0.1 mg/kg [1, 4]: 246%
response vs control in vivo at 0.3 mg/kg [1, 5]: 340%

C[C@@H]1CC(=O)C[C@H]1C(=O)N[C@@H](Cc1c[nH]cn1)C(=O)N1CCC[C@H]1C(N)=O (mixture of isomers) [Compound 20, N^α -(trans-2-Methyl-4-oxocyclopentanecarbonyl)-L-histidyl-L-prolinamide]
response vs control in vivo at 0.1 mg/kg [1, 4]: 107%
response vs control in vivo at 0.3 mg/kg [1, 5]: 223%

C[C@@H]1CC(=O)N[C@@H]1C(=O)N[C@@H](Cc1cnc[nH]1)C(=O)N1CSC[C@H]1C(N)=O (relative stereo) [Compound 3, 3-[N^α -(cis-3-Methylpyroglutamyl)-L-histidyl]-L-thiazolidine-4-carboxamide]
Concentration of test compound necessary for raising body temperature by 1° C. on the average for 120 minutes [2]: 0.20 mg/kg
Area below the reflex amplitude linking line ([1]; 0.1 mg/kg): 13811
Reflex amplitude (%) 10 min. after ([1]; 0.1 mg/kg): 190.5%
Reflex amplitude (%) 60 min. after ([1]; 0.1 mg/kg): 277.6%
Concentration of test compound necessary for inducing 3000 count of automatism quantity in 2 hours [3]: 0.47 mg/kg

C[C@H]1CC(=O)N[C@@H]1C(=O)N[C@@H](Cc1c[nH]cn1)C(=O)N1CSC[C@H]1C(N)=O (relative stereo) [Compound 4, 3-[N^α -(trans-3-Methylpyroglutamyl)-L-histidyl]-L-thiazolidine-4-carboxamide]
Concentration of test compound necessary for raising body temperature by 1° C. on the average for 120 minutes [2]: 0.34 mg/kg
Area below the reflex amplitude linking line ([1]; 0.1 mg/kg): 9404
Reflex amplitude (%) 10 min. after ([1]; 0.1 mg/kg): 142.8%
Reflex amplitude (%) 60 min. after ([1]; 0.1 mg/kg): 163.9%
Concentration of test compound necessary for inducing 3000 count of automatism quantity in 2 hours [3]: 0.63 mg/kg

C[C@@H]1CC(=O)N[C@@H]1C(=O)N[C@@H](Cc1c[nH]cn1)C(=O)N1CCC[C@H]1C(N)=O [Compound 1, N^α -(cis-3-Methylpyroglutamyl)-L-histidyl-L-prolinamide]
response vs control in vivo at 0.1 mg/kg [1, 4]: 298%

C[C@H]1CC(=O)N[C@@H]1C(=O)N[C@@H](Cc1c[nH]cn1)C(=O)N1CCC[C@H]1C(N)=O [Compound 2, N^α -(trans-3-Methylpyroglutamyl)-L-histidyl-L-prolinamide]
response vs control in vivo at 0.1 mg/kg [1, 4]: 107%

C[C@@H]1CC(=O)O[C@@H]1C(=O)N[C@@H](Cc1c[nH]cn1)C(=O)N1CCC[C@H]1C(N)=O [Compound 5, N^α -[(2S,3R)-Tetrahydro-3-methyl-5-oxo-2-furancarbonyl]-L-histidyl-L-prolinamide]
response vs control in vivo at 0.1 mg/kg [1, 4]: 168%

NC(=O)[C@@H]1CCCN1C(=O)[C@H](Cc1c[nH]cn1)NC(=O)[C@H]1NC(=O)C[C@H]1c1ccccc1 [Compound 11, N^α -(cis-3-Phenylpyroglutamyl)-L-histidyl-L-prolinamide]
ED (1 degC rise in body temperature) [2]: 0.28 mg/kg
response vs control in vivo at 0.1 mg/kg [1, 6]: 140%
response vs control in vivo at 0.1 mg/kg [1, 4]: 241%
Area below the reflex amplitude linking line ([1]; 0.1 mg/kg): 11321
ED (3000 locomotor counts) [3]: 1.89 mg/kg

NC(=O)[C@@H]1CCCN1C(=O)[C@H](Cc1c[nH]cn1)NC(=O)C1CCC(=O)C1 (stereo partly drawn) [Compound 13, N^α -(3-Oxocyclopentanecarbonyl)-L-histidyl-L-prolinamide]
response vs control in vivo at 0.1 mg/kg [1, 4]: 167%

NC(=O)[C@@H]1CCCN1C(=O)[C@H](Cc1c[nH]cn1)NC(=O)[C@@H]1CCC(=O)C1 [Compound 16, N^α -[(1R)-3-Oxocyclopentanecarbonyl]-L-histidyl-L-prolinamide]
response vs control in vivo at 0.1 mg/kg [1, 4]: 252%

CC1(C)CC(=O)CC1C(=O)N[C@@H](Cc1c[nH]cn1)C(=O)N1CCC[C@H]1C(N)=O (stereo partly drawn) [Compound 21, N^α -(2,2-Dimethyl-4-oxocyclopentanecarbonyl)-L-histidyl-L-prolinamide]
response vs control in vivo at 0.1 mg/kg [1, 4]: 145%
response vs control in vivo at 0.3 mg/kg [1, 5]: 274%

CC(C)C[C@H](NC(=O)[C@H]1NC(=O)C[C@H]1C)C(=O)N1CCC[C@H]1C(N)=O [Compound 27A, N-(cis-3-Methylpyroglutamyl)-L-leucyl-L-prolinamide]
response vs control in vivo at 0.1 mg/kg [1, 6]: 126%
response vs control in vivo at 0.1 mg/kg [1, 4]: 156%
Area below the reflex amplitude linking line ([1]; 0.1 mg/kg): 8769

CSCC[C@H](NC(=O)[C@H]1NC(=O)C[C@H]1C)C(=O)N1CCC[C@H]1C(N)=O [Compound 28A, N-(cis-3-Methylpyroglutamyl)-L-methionyl-L-prolinamide]
response vs control in vivo at 0.1 mg/kg [1, 6]: 125%
response vs control in vivo at 0.1 mg/kg [1, 4]: 195%
Area below the reflex amplitude linking line ([1]; 0.1 mg/kg): 9188

CCC[C@H](NC(=O)[C@H]1NC(=O)C[C@H]1C)C(=O)N1CCC[C@H]1C(N)=O [Compound 29A, N-(cis-3-Methylpyroglutamyl)-L-norvalyl-L-prolinamide]
response vs control in vivo at 0.3 mg/kg [1, 7]: 124%
response vs control in vivo at 0.3 mg/kg [1, 5]: 121%
Area below the reflex amplitude linking line ([1]; 0.3 mg/kg (footnote *)): 7063

CCCC[C@H](NC(=O)[C@H]1NC(=O)C[C@H]1C)C(=O)N1CCC[C@H]1C(N)=O [Compound 31A, N-(cis-3-Methylpyroglutamyl)-L-norleucyl-L-prolinamide]
response vs control in vivo at 0.1 mg/kg [1, 6]: 130%
response vs control in vivo at 0.1 mg/kg [1, 4]: 129%
Area below the reflex amplitude linking line ([1]; 0.1 mg/kg): 8126

CCC[C@H](NC(=O)[C@H]1NC(=O)CC1(C)C)C(=O)N1CCC[C@H]1C(N)=O [Compound 33A, N-(3,3-Dimethylpyroglutamyl)-L-norvalyl-L-prolinamide]
response vs control in vivo at 0.3 mg/kg [1, 7]: 119%
response vs control in vivo at 0.3 mg/kg [1, 5]: 120%
Area below the reflex amplitude linking line ([1]; 0.3 mg/kg (footnote *)): 7172

NC(=O)[C@@H]1CCCN1C(=O)[C@H](Cc1ccccc1)NC(=O)[C@@H]1CCC(=O)C1 [Compound 37, N-[(1R)-3-oxocyclopentanecarbonyl]-L-phenylalanyl-L-prolinamide]
Area below the reflex amplitude linking line ([1]; 0.3 mg/kg (footnote *)): 5868

NC(=O)C1CCCN1C(=O)C(Cc1cnc[nH]1)NC(=O)C1CCC(=O)O1 (stereo not shown) [DN1417, reference compound]
Concentration of test compound necessary for raising body temperature by 1° C. on the average for 120 minutes [2]: 2.06 mg/kg
Area below the reflex amplitude linking line ([1]; 0.3 mg/kg (footnote *)): 8152
Reflex amplitude (%) 10 min. after ([1]; 0.3 mg/kg (footnote *)): 113.7%
Reflex amplitude (%) 60 min. after ([1]; 0.3 mg/kg (footnote *)): 162.8%
Concentration of test compound necessary for inducing 3000 count of automatism quantity in 2 hours [3]: 4.34 mg/kg

NC(=O)[C@@H]1CCCN1C(=O)[C@H](Cc1c[nH]cn1)NC(=O)[C@@H]1CCC(=O)N1 [TRH, L-pyroglutamyl-L-histidyl-L-prolinamide, reference compound]
ED (1 degC rise in body temperature) [2]: 2.52 mg/kg
response vs control in vivo at 0.1 mg/kg [1, 6]: 118%
response vs control in vivo at 0.1 mg/kg [1, 4]: 79.3%
Area below the reflex amplitude linking line ([1]; 0.1 mg/kg): 6418
ED (3000 locomotor counts) [3]: 6.82 mg/kg

From patent publication US5151497A, “Histidyl peptide derivatives” (Japan Tobacco Inc., priority 1990, dated 1992)
